# Measured values published in ChEMBL document CHEMBL4364276, “Discovery of 4-phenyl-2H-benzo[b][1,4]oxazin-3(4H)-one derivatives as potent and orally active PI3K/mTOR dual inhibitors” (Eur J Med Chem, 2019).
# pIC50: −log10 of the molar value.
# How the values were obtained:
# [1] = molecular target: Non-receptor tyrosine-protein kinase TNK1 (Homo sapiens) (UniProt Q13470); assay: Inhibition of human TNK1 at 100 nM using poly[Glu:Tyr] (4:1) as substrate by [gamma-33P]-ATP assay
# [2] = molecular target: CDK9/Cyclin-T2 (Homo sapiens) (UniProt P50750+O60583); assay: Inhibition of human CDK9/cyclin-T2 at 100 nM using KTFCGTPEYLAPEVRREPRILSEEEQEMFRDFDYIADWC as substrate by [gamma-33P]-ATP assay; type: protein-complex assay
# [3] = molecular target: Serine/threonine-protein kinase Nek9 (Homo sapiens) (UniProt Q8TD19); assay: Inhibition of human NEK9 at 100 nM using casein as substrate by [gamma-33P]-ATP assay
# [4] = molecular target: Fibroblast growth factor receptor 1 (Homo sapiens) (UniProt P11362); assay: Inhibition of human FGFR1 at 100 nM using KKKSPGEYVNIEFG as substrate by [gamma-33P]-ATP assay
# [5] = Volume of distribution at steady state in Sprague-Dawley rat at 1 mg/kg, iv measured upto 24 hrs by LC-MS/MS analysis; type: ADME, organism-based; conditions: in vivo, read-out: Vdss
# [6] = molecular target: Serine/threonine-protein kinase PAK 1 (Homo sapiens) (UniProt Q13153); assay: Inhibition of human PAK1 at 100 nM using RRRLSFAEPG as substrate by [gamma-33P]-ATP assay
# [7] = molecular target: Serine/threonine-protein kinase WNK2 (Homo sapiens) (UniProt Q9Y3S1); assay: Inhibition of human WNK2 at 100 nM using MBP as substrate by [gamma-33P]-ATP assay
# Chain of Serine/threonine-protein kinase WNK2 (Homo sapiens) (Q9Y3S1 whole entry): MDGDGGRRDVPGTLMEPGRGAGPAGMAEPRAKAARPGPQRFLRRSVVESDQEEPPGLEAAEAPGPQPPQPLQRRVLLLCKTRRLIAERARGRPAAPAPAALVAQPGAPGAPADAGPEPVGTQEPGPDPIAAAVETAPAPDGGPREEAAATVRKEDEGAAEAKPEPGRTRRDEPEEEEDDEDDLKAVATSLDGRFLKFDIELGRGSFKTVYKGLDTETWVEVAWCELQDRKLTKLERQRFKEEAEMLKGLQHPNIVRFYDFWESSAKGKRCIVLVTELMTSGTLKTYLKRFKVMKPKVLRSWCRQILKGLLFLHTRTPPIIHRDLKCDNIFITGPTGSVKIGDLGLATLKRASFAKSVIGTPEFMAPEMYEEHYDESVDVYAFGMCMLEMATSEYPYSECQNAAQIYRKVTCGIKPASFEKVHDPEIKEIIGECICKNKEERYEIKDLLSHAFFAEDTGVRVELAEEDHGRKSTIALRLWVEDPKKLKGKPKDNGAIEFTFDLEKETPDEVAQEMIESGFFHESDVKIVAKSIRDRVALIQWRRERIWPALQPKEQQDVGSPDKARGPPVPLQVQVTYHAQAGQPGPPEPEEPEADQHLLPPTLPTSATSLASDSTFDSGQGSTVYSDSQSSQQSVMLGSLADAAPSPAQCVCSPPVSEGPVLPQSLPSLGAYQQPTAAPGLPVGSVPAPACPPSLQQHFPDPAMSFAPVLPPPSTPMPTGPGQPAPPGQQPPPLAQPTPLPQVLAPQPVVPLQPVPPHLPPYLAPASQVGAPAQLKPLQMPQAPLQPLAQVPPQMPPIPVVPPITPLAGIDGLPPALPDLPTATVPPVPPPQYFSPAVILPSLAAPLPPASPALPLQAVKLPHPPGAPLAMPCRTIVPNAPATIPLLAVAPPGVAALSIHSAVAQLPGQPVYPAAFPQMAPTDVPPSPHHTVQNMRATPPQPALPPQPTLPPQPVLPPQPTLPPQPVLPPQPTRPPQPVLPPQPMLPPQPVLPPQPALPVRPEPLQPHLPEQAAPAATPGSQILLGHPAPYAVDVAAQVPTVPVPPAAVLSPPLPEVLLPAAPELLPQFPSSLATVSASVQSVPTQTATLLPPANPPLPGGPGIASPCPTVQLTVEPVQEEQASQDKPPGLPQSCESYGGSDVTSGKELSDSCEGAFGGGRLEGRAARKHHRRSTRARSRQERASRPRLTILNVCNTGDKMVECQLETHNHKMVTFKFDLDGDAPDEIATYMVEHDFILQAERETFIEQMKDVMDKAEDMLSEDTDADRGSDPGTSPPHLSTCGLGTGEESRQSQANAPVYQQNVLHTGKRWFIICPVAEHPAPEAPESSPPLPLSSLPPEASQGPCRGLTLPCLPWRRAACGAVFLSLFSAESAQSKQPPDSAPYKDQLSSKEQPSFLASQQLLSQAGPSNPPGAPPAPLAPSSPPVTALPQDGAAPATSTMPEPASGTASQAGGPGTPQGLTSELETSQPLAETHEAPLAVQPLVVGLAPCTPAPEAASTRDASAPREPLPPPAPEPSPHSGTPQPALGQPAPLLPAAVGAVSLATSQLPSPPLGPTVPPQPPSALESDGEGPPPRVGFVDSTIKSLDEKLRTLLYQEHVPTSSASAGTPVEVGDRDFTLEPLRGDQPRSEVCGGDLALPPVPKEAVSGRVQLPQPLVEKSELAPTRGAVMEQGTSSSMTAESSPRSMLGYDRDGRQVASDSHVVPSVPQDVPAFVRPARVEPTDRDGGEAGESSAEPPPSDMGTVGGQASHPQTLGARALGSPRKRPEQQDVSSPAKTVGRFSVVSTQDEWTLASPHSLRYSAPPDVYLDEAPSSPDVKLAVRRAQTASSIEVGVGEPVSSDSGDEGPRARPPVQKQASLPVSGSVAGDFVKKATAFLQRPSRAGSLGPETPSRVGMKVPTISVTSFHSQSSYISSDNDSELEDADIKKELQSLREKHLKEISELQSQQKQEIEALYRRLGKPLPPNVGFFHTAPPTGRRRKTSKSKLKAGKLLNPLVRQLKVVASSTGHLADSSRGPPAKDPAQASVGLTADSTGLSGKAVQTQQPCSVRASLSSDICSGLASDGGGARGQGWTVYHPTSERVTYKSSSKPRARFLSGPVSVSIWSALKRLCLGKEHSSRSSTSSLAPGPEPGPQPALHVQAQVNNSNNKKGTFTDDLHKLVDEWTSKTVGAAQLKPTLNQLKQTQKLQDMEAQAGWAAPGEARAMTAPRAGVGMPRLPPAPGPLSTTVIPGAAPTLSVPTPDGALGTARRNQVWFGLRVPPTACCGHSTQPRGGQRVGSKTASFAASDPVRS
# [8] = molecular target: Calcium/calmodulin-dependent protein kinase type 1D (Homo sapiens) (UniProt Q8IU85); assay: Inhibition of human CAMK1D at 100 nM using KKALRRQETVDAL as substrate by [gamma-33P]-ATP assay
# [9] = molecular target: Maternal embryonic leucine zipper kinase (Homo sapiens) (UniProt Q14680); assay: Inhibition of human MELK at 100 nM using KKLNRTLSFAEPG as substrate by [gamma-33P]-ATP assay
# [10] = molecular target: Glycogen synthase kinase-3 alpha (Homo sapiens) (UniProt P49840); assay: Inhibition of human GSK3A at 100 nM using YRRAAVPPSPSLSRHSSPHQ(pS)EDEEE as substrate by [gamma-33P]-ATP assay
# [11] = molecular target: Serine/threonine-protein kinase/endoribonuclease IRE1 (Homo sapiens) (UniProt O75460); assay: Inhibition of human ERN1 at 100 nM using MBP as substrate by [gamma-33P]-ATP assay
# [12] = molecular target: Mitogen-activated protein kinase kinase kinase 10 (Homo sapiens) (UniProt Q02779); assay: Inhibition of human MLK2 at 100 nM using MBP as substrate by [gamma-33P]-ATP assay
# [13] = system: HeLa; assay: Antitumor activity against human HeLa cells xenografted in BALB/c nude mouse assessed as tumor growth inhibition at 20 mg/kg, ig administered for 30 days measured every 3 days during compound dosing relative to control; type: functional; conditions: po, read-out: TGI
# [14] = molecular target: Serine/threonine-protein kinase MARK2 (Homo sapiens) (UniProt Q7KZI7); assay: Inhibition of human MARK2 isoform 4 at 100 nM using KKKVSRSGLYRSPSMPENLNRPR as substrate by [gamma-33P]-ATP assay
# Chain of Serine/threonine-protein kinase MARK2 (Homo sapiens) (Q7KZI7 whole entry, canonical isoform): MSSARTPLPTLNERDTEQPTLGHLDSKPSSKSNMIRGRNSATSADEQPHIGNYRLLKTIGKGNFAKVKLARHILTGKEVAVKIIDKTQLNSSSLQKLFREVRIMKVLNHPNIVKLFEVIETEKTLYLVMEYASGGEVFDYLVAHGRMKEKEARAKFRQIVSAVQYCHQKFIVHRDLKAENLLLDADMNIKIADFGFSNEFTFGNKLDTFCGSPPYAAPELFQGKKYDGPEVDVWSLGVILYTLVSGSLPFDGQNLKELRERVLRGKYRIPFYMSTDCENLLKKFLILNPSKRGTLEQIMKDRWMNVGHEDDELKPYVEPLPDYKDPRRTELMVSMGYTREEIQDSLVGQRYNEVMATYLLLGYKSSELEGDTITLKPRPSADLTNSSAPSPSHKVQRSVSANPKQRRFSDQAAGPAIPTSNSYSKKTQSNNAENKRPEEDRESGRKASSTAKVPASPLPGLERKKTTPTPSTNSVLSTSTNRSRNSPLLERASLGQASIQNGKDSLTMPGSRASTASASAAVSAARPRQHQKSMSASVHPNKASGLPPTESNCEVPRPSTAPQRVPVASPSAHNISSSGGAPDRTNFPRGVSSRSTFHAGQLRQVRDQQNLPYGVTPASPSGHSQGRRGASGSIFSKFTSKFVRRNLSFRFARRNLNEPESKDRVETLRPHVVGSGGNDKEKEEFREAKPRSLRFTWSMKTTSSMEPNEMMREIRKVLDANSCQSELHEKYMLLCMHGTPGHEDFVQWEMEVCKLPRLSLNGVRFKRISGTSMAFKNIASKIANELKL
# [15] = molecular target: Serine/threonine-protein kinase TBK1 (Homo sapiens) (UniProt Q9UHD2); assay: Inhibition of human TBK1 at 100 nM using KRRRAL[pS]VASLPGL as substrate by [gamma-33P]-ATP assay
# Chain of Serine/threonine-protein kinase TBK1 (Homo sapiens) (Q9UHD2 whole entry): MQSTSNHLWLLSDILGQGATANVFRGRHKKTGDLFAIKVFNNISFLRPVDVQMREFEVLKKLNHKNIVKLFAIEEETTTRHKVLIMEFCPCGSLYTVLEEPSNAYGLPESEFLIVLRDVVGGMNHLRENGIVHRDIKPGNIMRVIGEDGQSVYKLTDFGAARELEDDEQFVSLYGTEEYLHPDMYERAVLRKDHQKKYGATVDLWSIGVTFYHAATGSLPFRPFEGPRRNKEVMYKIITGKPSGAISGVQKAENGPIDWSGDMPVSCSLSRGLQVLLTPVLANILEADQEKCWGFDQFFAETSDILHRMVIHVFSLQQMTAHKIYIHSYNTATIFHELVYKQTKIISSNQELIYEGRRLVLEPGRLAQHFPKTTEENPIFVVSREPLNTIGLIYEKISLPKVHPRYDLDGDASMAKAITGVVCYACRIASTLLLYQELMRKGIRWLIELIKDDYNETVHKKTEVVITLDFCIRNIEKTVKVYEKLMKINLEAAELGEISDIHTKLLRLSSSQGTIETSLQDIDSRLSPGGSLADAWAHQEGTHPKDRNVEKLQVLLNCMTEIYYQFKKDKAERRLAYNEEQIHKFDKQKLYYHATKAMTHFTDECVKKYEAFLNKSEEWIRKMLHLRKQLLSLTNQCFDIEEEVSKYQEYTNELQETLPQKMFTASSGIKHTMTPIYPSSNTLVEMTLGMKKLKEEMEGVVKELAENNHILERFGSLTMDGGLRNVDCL
# [16] = molecular target: cGMP-dependent protein kinase 1 (Homo sapiens) (UniProt Q13976); assay: Inhibition of human PKG1beta at 100 nM using LRRASLG as substrate by [gamma-33P]-ATP assay
# [17] = molecular target: Serine/threonine-protein kinase Nek6 (Homo sapiens) (UniProt Q9HC98); assay: Inhibition of human NEK6 at 100 nM using casein as substrate by [gamma-33P]-ATP assay
# Chain of Serine/threonine-protein kinase Nek6 (Homo sapiens) (Q9HC98 whole entry): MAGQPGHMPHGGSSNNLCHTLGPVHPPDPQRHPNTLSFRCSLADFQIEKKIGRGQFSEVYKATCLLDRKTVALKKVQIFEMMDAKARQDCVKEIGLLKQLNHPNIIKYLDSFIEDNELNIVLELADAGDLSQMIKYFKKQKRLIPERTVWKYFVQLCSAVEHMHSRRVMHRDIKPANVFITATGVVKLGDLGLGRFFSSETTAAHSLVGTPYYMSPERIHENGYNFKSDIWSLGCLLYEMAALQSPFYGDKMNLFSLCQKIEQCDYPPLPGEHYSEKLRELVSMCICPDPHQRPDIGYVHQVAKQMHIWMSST
# [18] = molecular target: Serine/threonine-protein kinase Nek4 (Homo sapiens) (UniProt P51957); assay: Inhibition of human NEK4 at 100 nM using MBP as substrate by [gamma-33P]-ATP assay
# [19] = molecular target: Tyrosine-protein kinase TXK (Homo sapiens) (UniProt P42681); assay: Inhibition of human TXK at 100 nM using EAIYAAPFAKKK as substrate by [gamma-33P]-ATP assay
# [20] = molecular target: Mitogen-activated protein kinase kinase kinase 11 (Homo sapiens) (UniProt Q16584); assay: Inhibition of human MLK3 at 100 nM using MBP as substrate by [gamma-33P]-ATP assay
# [21] = molecular target: Serine/threonine-protein kinase 16 (Homo sapiens) (UniProt O75716); assay: Inhibition of human STK16 at 100 nM using MBP as substrate by [gamma-33P]-ATP assay
# [22] = molecular target: Mitogen-activated protein kinase 3 (Homo sapiens) (UniProt P27361); assay: Inhibition of human ERK1 at 100 nM using MBP as substrate by [gamma-33P]-ATP assay
# [23] = molecular target: CDK9/Cyclin K (Homo sapiens) (UniProt P50750+O75909); assay: Inhibition of human CDK9/cyclin-K at 100 nM using KTFCGTPEYLAPEVRREPRILSEEEQEMFRDFDYIADWC as substrate by [gamma-33P]-ATP assay; type: protein-complex assay
# [24] = molecular target: Tau-tubulin kinase 2 (Homo sapiens) (UniProt Q6IQ55); assay: Inhibition of human TTBK2 at 100 nM using MBP as substrate by [gamma-33P]-ATP assay
# [25] = molecular target: Mitogen-activated protein kinase kinase kinase 20 (Homo sapiens) (UniProt Q9NYL2); assay: Inhibition of human ZAK at 100 nM using MBP as substrate by [gamma-33P]-ATP assay
# [26] = molecular target: Mitogen-activated protein kinase 13 (Homo sapiens) (UniProt O15264); assay: Inhibition of human p38delta at 100 nM using MBP as substrate by [gamma-33P]-ATP assay
# [27] = molecular target: Serine/threonine-protein kinase PLK1 (Homo sapiens) (UniProt P53350); assay: Inhibition of human PLK1 at 100 nM using casein as substrate by [gamma-33P]-ATP assay
# Chain of Serine/threonine-protein kinase PLK1 (Homo sapiens) (P53350 whole entry): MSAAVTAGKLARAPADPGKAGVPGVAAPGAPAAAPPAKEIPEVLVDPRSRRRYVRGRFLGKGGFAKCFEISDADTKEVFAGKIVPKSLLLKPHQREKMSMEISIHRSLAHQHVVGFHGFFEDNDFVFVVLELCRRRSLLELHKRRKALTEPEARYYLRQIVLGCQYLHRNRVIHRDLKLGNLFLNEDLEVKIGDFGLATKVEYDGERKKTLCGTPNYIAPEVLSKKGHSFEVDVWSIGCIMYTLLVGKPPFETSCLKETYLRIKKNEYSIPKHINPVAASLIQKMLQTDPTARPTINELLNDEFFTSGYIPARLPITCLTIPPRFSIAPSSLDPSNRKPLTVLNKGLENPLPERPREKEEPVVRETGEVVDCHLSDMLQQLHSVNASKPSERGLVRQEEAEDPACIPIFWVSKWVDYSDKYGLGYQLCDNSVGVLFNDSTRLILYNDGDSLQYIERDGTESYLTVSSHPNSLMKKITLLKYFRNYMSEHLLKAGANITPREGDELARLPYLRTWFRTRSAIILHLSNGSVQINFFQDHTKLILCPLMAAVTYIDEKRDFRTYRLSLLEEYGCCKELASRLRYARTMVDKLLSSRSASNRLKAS
# [28] = molecular target: Serine/threonine-protein kinase Sgk2 (Homo sapiens) (UniProt Q9HBY8); assay: Inhibition of human SGK2 at 100 nM using KGSGSGRPRTSSFAEG as substrate by [gamma-33P]-ATP assay
# Chain of Serine/threonine-protein kinase Sgk2 (Homo sapiens) (Q9HBY8 whole entry): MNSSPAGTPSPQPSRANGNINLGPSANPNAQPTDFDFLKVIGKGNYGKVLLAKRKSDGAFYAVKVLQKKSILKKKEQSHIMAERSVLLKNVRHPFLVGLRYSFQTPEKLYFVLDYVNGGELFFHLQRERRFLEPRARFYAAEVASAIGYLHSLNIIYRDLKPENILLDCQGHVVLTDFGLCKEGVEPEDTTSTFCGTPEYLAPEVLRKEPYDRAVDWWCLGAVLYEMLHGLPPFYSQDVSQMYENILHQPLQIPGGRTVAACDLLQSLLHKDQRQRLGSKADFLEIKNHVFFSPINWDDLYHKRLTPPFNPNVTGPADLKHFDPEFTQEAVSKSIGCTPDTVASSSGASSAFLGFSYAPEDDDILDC
# [29] = system: HCT-116; assay: Antiproliferative activity against human HCT116 cells assessed as reduction in cell viability incubated for 72 hrs by MTT assay; type: functional, cell-based; conditions: HCT-116, 72 h
structure (smiles),measurement,setting,value
COc1ccc(N2C(=O)COc3ccc(-c4cnc(OC)c(NS(=O)(=O)c5ccc(F)cc5)c4)cc32)cc1,inhibition,[1],10.7%
same,inhibition,[2],31.9%
same,inhibition,[3],10.4%
same,inhibition,[4],-9.98%
same,Vd,[5],1.2 L/kg
same,inhibition,[6],7.71%
same,inhibition,[7],2.82%
same,inhibition,[8],0%
same,inhibition,[9],9.78%
same,inhibition,[10],-8.76%
same,inhibition,[11],-2.68%
same,inhibition,[12],-1.63%
same,inhibition in vivo at 20 mg/kg,[13],66.6%
same,inhibition,[14],1.93%
same,inhibition,[15],5.37%
same,inhibition,[16],-9.98%
same,inhibition,[17],-2.82%
same,inhibition,[18],-6.56%
same,inhibition,[19],9.62%
same,inhibition,[20],3.29%
same,inhibition,[21],-2.3%
same,inhibition,[22],12.7%
same,inhibition,[23],9.26%
same,inhibition,[24],-3.23%
same,inhibition,[25],-6.81%
same,inhibition,[26],13.9%
same,inhibition,[27],8.68%
same,inhibition,[28],5.89%
same,pIC50,[29],4.87
